Earlier results in patent publication EP4578905A1, “COMPOSITION, PREPARATION METHOD THEREFOR, AND USE THEREOF” (Bloomage Biotechnology Corporation Limited, priority 2022, dated 2024).
Read-outs that look alike come from different tables or passages of the source.

dissociation constant pK (first pK printed): 4.03
dissociation constant pK (second pK printed): 10.56
Compound: NCCCC(=O)O [γ-aminobutyric acid]
